Literature values as cited in patent US12533344B2, “Formulations” (Glaukos Corporation, priority 2021, dated 2026).
Where two headings read alike, the source gives them in different places. Each block holds one molecule with its values, some of them ahead of it.

Conditions: for Effective Buffering Range: pH range

Molecule: Citrate buffer
Effective Buffering Range (listed as Citrate buffer-pKa1): 2.2-5.0
Effective Buffering Range (listed as Citrate buffer-pKa2): 3.0-6.2

Effective Buffering Range: 3.3-6.2
Molecule: O=C1O[C@H]([C@@H](O)CO)C(O)=C1O [Ascorbic acid]

pKa of pilocarpine: ~6.5
Molecule: CC[C@@H]1C(=O)OC[C@@H]1Cc1cncn1C [pilocarpine, reference compound]

Effective Buffering Range: 2.8-5.3
Molecule: CC(O)C(=O)O (stereo not shown) [Lactic acid]

pKa (buffers and stabilizers of Table 1): 4.60
Effective Buffering Range: 3.3-6.0
Molecule: O=C(O)CCCCCCCC(=O)O [Azeliac acid]
